Reference: patent US20240199587A1, “HETEROCYCLIC COMPOUNDS” (Hoffmann-La Roche Inc., priority 2021, published 2024)

Molecular target: T1, MAGL (Homo sapiens, UniProt Q99685)
T1 sequence (Q99685 1-303): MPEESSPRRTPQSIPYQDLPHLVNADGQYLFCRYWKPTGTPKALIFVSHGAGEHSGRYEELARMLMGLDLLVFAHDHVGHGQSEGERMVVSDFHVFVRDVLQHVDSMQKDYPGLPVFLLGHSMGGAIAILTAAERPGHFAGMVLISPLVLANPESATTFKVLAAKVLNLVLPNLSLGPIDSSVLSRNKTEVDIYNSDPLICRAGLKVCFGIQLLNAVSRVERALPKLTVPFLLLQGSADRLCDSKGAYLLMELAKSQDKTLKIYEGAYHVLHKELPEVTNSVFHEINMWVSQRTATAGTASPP
Experiment: 2-AG assay (MAGL inhibitory activity, hydrolysis of 2-arachidonoylglycerol to arachidonic acid followed by mass spectrometry)
Assay type: biochemical
Conditions: 8 μM 2-arachidonoylglycerol, 15 min pre-incubation, 30 min incubation at RT, RapidFire MS readout
Procedure, shortened: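 Human MAGL ([…] final) pre-incubated 15 min at RT with compound in 50 mM TRIS, 1 mM EDTA, 0.01% Tween-20, 2.5% DMSO; 8 μM 2-AG then added for 30 min at RT. Acetonitrile quench with d8-arachidonic acid; arachidonic acid measured by RapidFire SPE–MS/MS, activity from arachidonic acid/d8 ratio.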

Compound | IC50
O=C(N1CC2(CC(n3cnc(C4CC4)n3)C2)C1)N1CC2(CCN(Cc3ccc(C(F)(F)F)nn3)C2)C1 [Example 438, [6-(3-cyclopropyl-1,2,4-triazol-1-yl)-2-azaspiro[3.3]heptan-2-yl]-[7-[[6-(trifluoromethyl)pyridazin-3-yl]methyl]-2,7-diazaspiro[3.4]octan-2-yl]methanone] | 0.0149 µM
CS(=O)(=O)c1cc(Cl)ccc1-c1ccc(C2CN(C(=O)N3CC4(C3)CN(c3cncc(F)c3)C4)C2)cc1 [Example 350, [3-[4-(4-chloro-2-methylsulfonyl-phenyl)phenyl]azetidin-1-yl]-[6-(5-fluoro-3-pyridyl)-2,6-diazaspiro[3.3]heptan-2-yl]methanone] | 0.0128 µM
O=C(N1CC(Oc2cncc(C(F)(F)F)n2)C1)N1CC2(CC(n3cnc(C4CC4)n3)C2)C1 [Example 303, [6-(3-cyclopropyl-1,2,4-triazol-1-yl)-2-azaspiro[3.3]heptan-2-yl]-[3-[6-(trifluoromethyl)pyrazin-2-yl]oxyazetidin-1-yl]methanone] | 0.101 µM
CS(=O)(=O)c1cc(Cl)ccc1-c1ccc(C2CN(C(=O)N3CC4(CC(c5ccc(C(F)(F)F)nc5)C4)C3)C2)cc1 [Example 371, [3-[4-(4-chloro-2-methylsulfonyl-phenyl)phenyl]azetidin-1-yl]-[6-[6-(trifluoromethyl)-3-pyridyl]-2-azaspiro[3.3]heptan-2-yl]methanone] | 0.00923 µM
O=C(N1C[C@H]2CC(Oc3ccc(F)cc3Cl)C[C@H]2C1)N1CC2(CC(n3cnnc3C3CC3)C2)C1 (mixture of isomers) [Example 178, [6-(3-cyclopropyl-1,2,4-triazol-4-yl)-2-azaspiro[3.3]heptan-2-yl]−[rac-(3aS,6aR)-5-(2-chloro-4-fluoro-phenoxy)-3,3a,4,5,6,6a-hexahydro-1H-cyclopenta[c]pyrrol-2-yl]methanone] | 0.156 µM
CC1(Cc2nnc(-c3ccc(C4CN(C(=O)N5CC6(CC(n7cnc(C8(O)CC8)n7)C6)C5)C4)cc3)[nH]2)CC1 [Example 394, [6-[3-(1-hydroxycyclopropyl)-1,2,4-triazol-1-yl]-2-azaspiro[3.3]heptan-2-yl]-[3-[4-[5-[(1-methylcyclopropyl)methyl]-4H-1,2,4-triazol-3-yl]phenyl]azetidin-1-yl]methanone] | 0.0437 µM
CC(C)(C)c1nc(-c2ccc(C(=O)N3CC4(CC(n5cc6c(n5)CCOC6)C4)C3)cc2)no1 [Example 14, [4-(5-tert-butyl-1,2,4-oxadiazol-3-yl)phenyl]-[6-(6,7-dihydro-4H-pyrano[4,3-c]pyrazol-2-yl)-2-azaspiro[3.3]heptan-2-yl]methanone] | 0.197 µM
CS(=O)(=O)c1cc(Cl)ccc1-c1ccc(C2CN(C(=O)N3CC4(CC(c5cncc(F)c5)C4)C3)C2)cc1 [Example 366, [3-[4-(4-chloro-2-methylsulfonyl-phenyl)phenyl]azetidin-1-yl]-[6-(5-fluoro-3-pyridyl)-2-azaspiro[3.3]heptan-2-yl]methanone] | 0.0142 µM
O=C(N1CC2(CCN(S(=O)(=O)C34CC(C(F)(F)F)(C3)C4)CC2)C1)N1CC2(CC(n3cnc(C4CC4)n3)C2)C1 [Example 484, [6-(3-cyclopropyl-1,2,4-triazol-1-yl)-2-azaspiro[3.3]heptan-2-yl]-[7-[[3-(trifluoromethyl)-1-bicyclo[1.1.1]pentanyl]sulfonyl]-2,7-diazaspiro[3.5]nonan-2-yl]methanone] | 0.0195 µM
CC1(O)CN(c2ccc(C3CN(C(=O)N4CC5(CC(n6cnc(C(F)(F)F)n6)C5)C4)C3)cn2)C1 [Example 453, [3-[6-(3-hydroxy-3-methyl-azetidin-1-yl)-3-pyridyl]azetidin-1-yl]-[6-[3-(trifluoromethyl)-1,2,4-triazol-1-yl]-2-azaspiro[3.3]heptan-2-yl]methanone] | 0.0394 µM
O=C(N1CC(NCc2ccc(C(F)(F)F)cc2F)C1)N1CC2(CC(n3cnc(C4CC4)n3)C2)C1 [Example 262, [6-(3-cyclopropyl-1,2,4-triazol-1-yl)-2-azaspiro[3.3]heptan-2-yl]-[3-[[2-fluoro-4-(trifluoromethyl)phenyl]methylamino]azetidin-1-yl]methanone] | 0.0252 µM
O=C(N1CC(Oc2ccnc(C3CC3)n2)C1)N1CC2(CC(n3cnc(C4CC4)n3)C2)C1 [Example 274, [3-(2-cyclopropylpyrimidin-4-yl)oxyazetidin-1-yl]-[6-(3-cyclopropyl-1,2,4-triazol-1-yl)-2-azaspiro[3.3]heptan-2-yl]methanone] | 0.0348 µM
O=C(N1CC2(CC(n3cnc(C4CC4)n3)C2)C1)N1CC2(C1)CN(S(=O)(=O)c1cncc(C(F)(F)F)c1)C2 [Example 268, [6-(3-cyclopropyl-1,2,4-triazol-1-yl)-2-azaspiro[3.3]heptan-2-yl]-[2-[[5-(trifluoromethyl)-3-pyridyl]sulfonyl]-2,6-diazaspiro[3.3]heptan-6-yl]methanone] | 0.0321 µM
O=C(N1CC2(CC(n3cnc(C4CC4)n3)C2)C1)C12CCC(COCC3(C(F)(F)F)CC3)(CC1)CC2 [Example 155, [6-(3-cyclopropyl-1,2,4-triazol-1-yl)-2-azaspiro[3.3]heptan-2-yl]−[4-[[1-(trifluoromethyl)cyclopropyl]methoxymethyl]-1-bicyclo[2.2.2]octanyl]methanone] | 0.0208 µM
CS(=O)(=O)c1cc(Cl)ccc1-c1ccc(C2CN(C(=O)N3CC4(CC(n5cncn5)C4)C3)C2)cc1 [Example 413, [3-[4-(4-chloro-2-methylsulfonyl-phenyl)phenyl]azetidin-1-yl]-[6-(1,2,4-triazol-1-yl)-2-azaspiro[3.3]heptan-2-yl]methanone] | 0.0478 µM
O=C(N1CC2(CC(Cc3ccc(F)cc3F)C2)C1)N1CC2(CC(c3ccc(C(F)(F)F)nc3)C2)C1 [Example 358, [6-[(2,4-difluorophenyl)methyl]-2-azaspiro[3.3]heptan-2-yl]-[6-[6-(trifluoromethyl)-3-pyridyl]-2-azaspiro[3.3]heptan-2-yl]methanone] | 0.0306 µM
O=C(N1CC(c2ccc(NCC3CS(=O)(=O)C3)nc2)C1)N1CC2(CC(n3cnc(C(F)(F)F)n3)C2)C1 [Example 428, [3-[6-[(1,1-dioxothietan-3-yl)methylamino]-3-pyridyl]azetidin-1-yl]-[6-[3-(trifluoromethyl)-1,2,4-triazol-1-yl]-2-azaspiro[3.3]heptan-2-yl]methanone] | 0.0585 µM

Now those with a lower IC50, led by results:

IC50 | Compound
0.0054 µM | O=C(N1CC2(CC(Oc3cnc(C(F)(F)F)nc3)C2)C1)N1CC2(CC(n3cnc(C4CC4)n3)C2)C1 [Example 61, (6-(3-cyclopropyl-1H-1,2,4-triazol-1-yl)-2-azaspiro[3.3]heptan-2-yl)(6-((2-(trifluoromethyl)pyrimidin-5-yl)oxy)-2-azaspiro[3.3]heptan-2-yl)methanone]
0.0051 µM | CC(C)(C)c1nc(-c2ccc(C(=O)N3CC4(CC(n5cnc(C6CC6)n5)C4)C3)cc2)no1 [Example 3, [4-(5-tert-butyl-1,2,4-oxadiazol-3-yl)phenyl]−[6-(3-cyclopropyl-1,2,4-triazol-1-yl)-2-azaspiro[3.3]heptan-2-yl]methanone]
0.0045 µM | O=C(N1CC2(CC(OCC3(C(F)(F)F)CC3)C2)C1)N1CC2(CC(n3cnc(C4CC4)n3)C2)C1 [Example 137, [6-(3-cyclopropyl-1,2,4-triazol-1-yl)-2-azaspiro[3.3]heptan-2-yl]-[6-[[1-(trifluoromethyl)cyclo-propyl]methoxy]-2-azaspiro[3.3]heptan-2-yl]methanone]
0.00436 µM | O=C(N1CC2(CC(n3cnc(C4(O)CC4)n3)C2)C1)N1CC2(CC[C@@H](Cc3ncc(F)cc3F)C2)C1 (stereo in doubt) [Example 352, [6-[3-(1-hydroxycyclopropyl)-1,2,4-triazol-1-yl]-2-azaspiro[3.3]heptan-2-yl]-[(6R)-6-[(3,5-difluoro-2-pyridyl)methyl]-2-azaspiro[3.4]octan-2-yl]methanone]
0.00135 µM | O=C(N1CC2(CC(n3cnc(C4(O)CC4)n3)C2)C1)N1CC2(CC[C@H](Cc3ccc(S(=O)(=O)C(F)(F)F)cc3)C2)C1 [Example 363, [6-[3-(1-hydroxycyclopropyl)-1,2,4-triazol-1-yl]-2-azaspiro[3.3]heptan-2-yl]-[(6R)-6-[[4-(trifluoromethylsulfonyl)phenyl]methyl]-2-azaspiro[3.4]octan-2-yl]methanone]
0.00051 µM | O=C(N1CC(c2ccc(C3CCC3)cc2)C1)N1CC2(CC(n3cnc(C4CC4)n3)C2)C1 [Example 507, [3-(4-cyclobutylphenyl)azetidin-1-yl]-[6-(3-cyclopropyl-1,2,4-triazol-1-yl)-2-azaspiro[3.3]heptan-2-yl]methanone]
0.0003 µM | CS(=O)(=O)c1ccc(CC2CC3(C2)CN(C(=O)N2CC4(CC(n5cnc(C(F)(F)F)n5)C4)C2)C3)c(F)c1 [Example 459, [6-[(2-fluoro-4-methylsulfonyl-phenyl)methyl]-2-azaspiro[3.3]heptan-2-yl]-[6-[3-(trifluoromethyl)-1,2,4-triazol-1-yl]-2-azaspiro[3.3]heptan-2-yl]methanone]
0.0002 µM | O=C(N1CC2(CC(Oc3cc(F)cc(C(F)(F)F)c3)C2)C1)N1CC2(CC(n3cnc(C4CC4)n3)C2)C1 [Example 46, (6-(3-cyclopropyl-1H-1,2,4-triazol-1-yl)-2-azaspiro[3.3]heptan-2-yl)(6-(3-fluoro-5-(trifluoromethyl)phenoxy)-2-azaspiro[3.3]heptan-2-yl)methanone]
0.0001 µM | CCc1ncn(C2CC3(C2)CN(C(=O)N2CC4(CC(Cc5ccc(F)cc5F)C4)C2)C3)n1 [Example 186, [6-[(2,4-difluorophenyl)methyl]-2-azaspiro[3.3]heptan-2-yl]-[6-(3-ethyl-1,2,4-triazol-1-yl)-2-azaspiro[3.3]heptan-2-yl]methanone]
